# Source: USRE46792E1, “Oxazole compound and pharmaceutical composition” (Otsuka Pharmaceutical Co., Ltd., priority 2005, dated 2018)
# Molecular target: human PDE4D3 (PDE4D) (Homo sapiens (Human), UniProt Q08499)
# Experiment: Phosphodiesterase (PDE)4 inhibitory activity evaluation test ([3H]cAMP hydrolysis by PDE4D enzyme solution)
# Type: biochemical
# Details: recombinant human PDE4D3 expressed in COS-7 cells; [3H]cAMP substrate; 10 min at 30° C.; 2% DMSO
# Description: Phosphodiesterase (PDE)4 Inhibitory Activity Evaluation Test
# (1) Large Scale Plasmid Preparation
# Plasmid containing genes (HPDE4D) coding for human PDE4D3 cDNA (stored in Otsuka America Pharmaceutical, Inc., Maryland Research Laboratories) was transformed in E. coli, cultured on a large scale, and purified using an EndoFree™ Plasmid Maxi Kit (Qiagen).
# (2) Abundant Expression and Purification of PDE4D
# COS-7 cells derived from African green monkey kidneys were passage cultured in D-MEM media containing 100 units/ml penicillin, 100 μg/ml streptomycin, and 10% FBS. The cells were transfected with the plasmid prepared in (1) above using Lipofectamine™ 2000 (hereinafter referred to as “LF2000”, Invitrogen), following the manufacturer's protocol. The COS-7 cells were inoculated in a 10 cm culture dish on the previous day so as to be 90% confluent on the day of transfection. Culture dishes each containing a plasmid solution (solution A) in which 24 μg of plasmid was diluted in 1.5 ml Opti-MEM I Reduced Serum Medium (Invitrogen) and an LF2000 solution (solution B) in which 60 μl of LF2000 was diluted in 1.5 ml Opti-MEM I Reduced Serum Medium were separately allowed to stand for 5 minutes at room temperature. Solutions A and B were then mixed and the mixture was allowed to stand for 20 minutes at room temperature. The mixture was added to the cultured cells, and incubated at 37° C. (5% CO2) overnight. On the following day, the medium was replaced, and the mixture was further incubated overnight to harvest the cells in the following manner. The cells were washed with PBS (Sigma) once, and 10 ml of a Trypsin-EDTA solution (Sigma) was added to each culture dish. After the solution was distributed to each of the culture dishes, the cells were detached, and the dishes were allowed to stand for about 5 minutes at 37° C. The detached cells from the dishes were suspended in media, collected into centrifuge tubes, and centrifuged at 1200 rpm for 5 minutes at 4° C., and supernatants were removed. The cells were further washed with PBS, and stored at −80° C. KHEM buffer (100 mM Hepes, 50 mM KCl, 10 mM EGTA, 1.92 mM MgCl2, pH 7.4) containing 1 mM DTT, 1 μg/ml antipain, 1 μg/ml aprotinin, 1 μg/ml leupeptin, 1 μg/ml pepstatin A, 157 μg/ml benzamidine, and 120 μg/ml Pefabloc SC was added to the stored cells, and the contents were moved to a glass homogenizer to be homogenized on ice. The cell suspension was centrifuged at 1000 rpm for 5 minutes at 4° C., and the supernatant was further centrifuged at 14000 rpm for one hour. After centrifugation, the supernatant was dispensed into new tubes as PDE4D enzyme solutions, and stored in a deep freezer.
# (3) Determination on Dilution Ratio of PDE4D Enzyme Solutions
# The PDE4D enzyme solutions prepared in (2) above were dissolved in 20 mM Tris-HCl solution (pH 7.4) to give 10-, 25-, 50-, 100-, 200-, 400-, and 800-fold dilutions of the enzyme solutions. PDE4D activities were measured according to (4) below. The percentage of catalyzed cAMP to total cAMP was calculated, and such a dilution, in which the percentage was between 10% and 30%, was adopted in the inhibitory study below.
# (4) Measurement of PDE4D Inhibitory Activity
# Necessary amounts of test compounds were weighed, and 100% dimethylsulfoxide (DMSO) was added thereto to adjust the concentration to 10 mM. The solutions were stored in a freezer as stock solutions of each test compound. After being thawed when required, the solutions were diluted 20-fold with 100% DMSO to give a 500 μM concentration. Further, 10-fold serial dilutions were made with 100% DMSO to prepare test compounds of different concentrations. 2 μl of solutions containing one of each of the test compound were separately added into 1.2 ml tubes in which 23 μl of 20 mM Tris-HCl (pH 7.4) had been placed beforehand. […]
# Chain of human PDE4D3 (PDE4D) (Q08499 other isoform, or with tags, fused parts or gaps): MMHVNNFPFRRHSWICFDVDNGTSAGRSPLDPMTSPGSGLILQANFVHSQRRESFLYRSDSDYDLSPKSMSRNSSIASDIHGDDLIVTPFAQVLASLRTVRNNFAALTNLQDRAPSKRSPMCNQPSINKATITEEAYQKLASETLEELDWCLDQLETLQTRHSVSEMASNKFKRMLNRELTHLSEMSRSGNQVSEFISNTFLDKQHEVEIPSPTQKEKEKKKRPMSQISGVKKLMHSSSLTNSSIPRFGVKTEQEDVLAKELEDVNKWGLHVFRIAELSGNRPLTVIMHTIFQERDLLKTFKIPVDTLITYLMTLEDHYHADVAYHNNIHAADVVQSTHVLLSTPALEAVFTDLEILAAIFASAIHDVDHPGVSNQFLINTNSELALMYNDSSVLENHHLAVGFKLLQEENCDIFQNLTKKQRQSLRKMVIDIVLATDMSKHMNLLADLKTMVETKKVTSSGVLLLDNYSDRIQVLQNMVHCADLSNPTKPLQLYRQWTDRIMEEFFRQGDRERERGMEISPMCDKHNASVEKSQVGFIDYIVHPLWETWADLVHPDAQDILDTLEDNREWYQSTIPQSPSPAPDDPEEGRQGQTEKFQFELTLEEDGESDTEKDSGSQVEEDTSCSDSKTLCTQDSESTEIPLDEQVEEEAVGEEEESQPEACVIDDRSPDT
row,Structure (SMILES),IC50 [nM]
1,"CCC(CC)Oc1cc(-c2nc(CCC(=O)c3ncccc3C)co2)ccc1OC [Example 312, 3-{2-[3-(1-ethylpropoxy)-4-methoxyphenyl]oxazol-4-yl}-1-(3-methylpyridin-2-yl)propan-1-one]",< 50
2,"CCOc1ccccc1C(=O)CCc1coc(-c2ccc(OC)c(OCC(F)F)c2)n1 [Example 314, 3-{2-[3-(2,2-difluoroethoxy)-4-methoxyphenyl]oxazol-4-yl}-1-(2-ethoxyphenyl)propan-1-one]",< 50
3,"CCOc1ccccc1C(=O)CCc1coc(-c2ccc(OC)c(OCCF)c2)n1 [Example 315, 1-(2-ethoxyphenyl)-3-{2-[3-(2-fluoroethoxy)-4-methoxyphenyl]oxazol-4-yl}propan-1-one]",< 50
4,"CCOc1ccc(-c2nc(CCC(=O)c3ncccc3C)co2)cc1OCC(F)F [Example 318, 3-{2-[3-(2,2-difluoroethoxy)-4-ethoxyphenyl]oxazol-4-yl}-1-(3-methylpyridin-2-yl)-propan-1-one]",< 50
5,"CCC(CC)Oc1cc(-c2nc(CNC(=O)c3ncccc3C)co2)ccc1OC [Example 324, N-{2-[3-(1-ethylpropoxy)-4-methoxyphenyl]oxazol-4-ylmethyl}-3-methylpicolinamide]",< 50
6,"Cc1cccnc1C(=O)CCc1coc(-c2ccc(OC(F)F)c(OCC3CC3)c2)n1 [Example 328, 3-[2-(3-cyclopropylmethoxy-4-difluoromethoxyphenyl)oxazol-4-yl]-1-(3-methylpyridin-2-yl)propan-1-one]",< 50
7,"CCCOc1cc(-c2nc(CCC(=O)c3ncccc3C)co2)ccc1OC(F)F [Example 329, 3-[2-(4-difluoromethoxy-3-propoxyphenyl)oxazol-4-yl]-1-(3-methylpyridin-2-yl)propan-1-one]",< 50
8,"C=CCOc1cc(-c2nc(CCC(=O)c3ncccc3C)co2)ccc1OC(F)F [Example 330, 3-[2-(3-allyloxy-4-difluoromethoxyphenyl)oxazol-4-yl]-1-(3-methylpyridin-2-yl)propan-1-one]",< 50
9,"C=CCCOc1cc(-c2nc(CCC(=O)c3ncccc3C)co2)ccc1OC(F)F [Example 331, 3-[2-(3-but-3-enyloxy-4-difluoromethoxyphenyl)-oxazol-4-yl]-1-(3-methylpyridin-2-yl)propan-1-one]",< 50
10,"Cc1cccnc1C(=O)CCc1coc(-c2ccc(OC(F)F)c(OC(C)C)c2)n1 [Example 332, 3-[2-(4-difluoromethoxy-3-isopropoxyphenyl)oxazol-4-yl]-1-(3-methylpyridin-2-yl)propan-1-one]",< 50
11,"CCOc1cc(-c2nc(CCC(=O)c3ncccc3C)co2)ccc1OC(F)F [Example 333, 3-[2-(4-difluoromethoxy-3-ethoxyphenyl)oxazol-4-yl]-1-(3-methylpyridin-2-yl)propan-1-one]",< 50
12,"CCOc1cc(-c2nc(CCC(=O)c3ccccc3OCC)co2)ccc1OC(F)F [Example 334, 3-[2-(4-difluoromethoxy-3-ethoxyphenyl)oxazol-4-yl]-1-(2-ethoxyphenyl)propan-1-one]",< 50
13,"C=CCOc1cc(-c2nc(CCC(=O)c3ccccc3OCC)co2)ccc1OC(F)F [Example 335, 3-[2-(3-allyloxy-4-difluoromethoxyphenyl)oxazol-4-yl]-1-(2-ethoxyphenyl)propan-1-one]",< 50
14,"CCOc1ccccc1C(=O)CCc1coc(-c2ccc(OC(F)F)c(OCC3CC3)c2)n1 [Example 336, 3-[2-(3-cyclopropylmethoxy-4-difluoromethoxyphenyl)oxazol-4-yl]-1-(2-ethoxyphenyl)propan-1-one]",< 50
15,"C=CCCOc1cc(-c2nc(CCC(=O)c3ccccc3OCC)co2)ccc1OC(F)F [Example 337, 3-[2-(3-but-3-enyloxy-4-difluoromethoxyphenyl)oxazol-4-yl]-1-(2-ethoxyphenyl)propan-1-one]",< 50
16,"CCOc1cc(-c2nc(CNC(=O)c3ncccc3C)co2)ccc1OC(F)F [Example 338, N-[2-(4-difluoromethoxy-3-ethoxyphenyl)-oxazol-4-ylmethyl]-3-methylpicolinamide]",< 50
17,"C=CCOc1cc(-c2nc(CNC(=O)c3ncccc3C)co2)ccc1OC(F)F [Example 339, N-[2-(3-allyloxy-4-difluoromethoxyphenyl)oxazol-4-ylmethyl]-3-methylpicolinamide]",< 50
18,"CCCOc1cc(-c2nc(CNC(=O)c3ncccc3C)co2)ccc1OC(F)F [Example 340, N-[2-(4-difluoromethoxy-3-propoxyphenyl)oxazol-4-ylmethyl]-3-methylpicolinamide]",< 50
19,"Cc1cccnc1C(=O)NCc1coc(-c2ccc(OC(F)F)c(OC(C)C)c2)n1 [Example 341, N-[2-(4-difluoromethoxy-3-isopropoxyphenyl)oxazol-4-ylmethyl]-3-methylpicolinamide]",< 50
20,"CCC(CC)Oc1cc(-c2nc(CNC(=O)c3ncccc3C)co2)ccc1OC(F)F [Example 342, N-{2-[4-difluoromethoxy-3-(1-ethylpropoxy)phenyl]oxazol-4-ylmethyl}-3-methylpicolinamide]",< 50
21,"C=CCCOc1cc(-c2nc(CNC(=O)c3ncccc3C)co2)ccc1OC(F)F [Example 343, N-[2-(3-but-3-enyloxy-4-difluoromethoxyphenyl)oxazol-4-ylmethyl]-3-methylpicolinamide]",< 50
22,"Cc1cccnc1C(=O)NCc1coc(-c2ccc(OC(F)F)c(OCC(C)C)c2)n1 [Example 344, N-[2-(4-difluoromethoxy-3-isobutoxyphenyl)oxazol-4-ylmethyl]-3-methylpicolinamide]",< 50
23,"Cc1cccnc1C(=O)NCc1coc(-c2ccc(OC(F)F)c(OCC3CCC3)c2)n1 [Example 345, N-[2-(3-cyclobutylmethoxy-4-difluoromethoxyphenyl)oxazol-4-ylmethyl]-3-methyl picolinamide]",< 50
24,"CCOc1ccccc1C(=O)NCc1coc(-c2ccc(OC(F)F)c(OCC(C)C)c2)n1 [Example 348, N-[2-(4-difluoromethoxy-3-isobutoxyphenyl)oxazol-4-ylmethyl]-2-ethoxybenzamide]",< 50
25,"CCOc1cc(-c2nc(CNC(=O)c3ccccc3OCC)co2)ccc1OC(F)F [Example 349, N-[2-(4-difluoromethoxy-3-ethoxyphenyl)oxazol-4-ylmethyl]-2-ethoxybenzamide]",< 50
26,"CCCOc1cc(-c2nc(CNC(=O)c3ccccc3OCC)co2)ccc1OC(F)F [Example 350, N-[2-(4-difluoromethoxy-3-propoxyphenyl)oxazol-4-ylmethyl]-2-ethoxybenzamide]",< 50
27,"C=CCOc1cc(-c2nc(CNC(=O)c3ccccc3OCC)co2)ccc1OC(F)F [Example 351, N-[2-(3-allyloxy-4-difluoromethoxyphenyl)oxazol-4-ylmethyl]-2-ethoxybenzamide]",< 50
28,"CCOc1ccccc1C(=O)NCc1coc(-c2ccc(OC(F)F)c(OC(C)C)c2)n1 [Example 352, N-[2-(4-difluoromethoxy-3-isopropoxyphenyl)oxazol-4-ylmethyl]-2-ethoxybenzamide]",< 50
29,"CCOc1ccccc1C(=O)NCc1coc(-c2ccc(OC(F)F)c(OCC3CC3)c2)n1 [Example 353, N-[2-(3-cyclopropylmethoxy-4-difluoromethoxyphenyl)oxazol-4-ylmethyl]-2-ethoxy benzamide]",< 50
